Assay [1] concerns the target hNAMPT protein (Homo sapiens (Human), UniProt P43490). Briefly: NAMPT enzyme assay (TR-FRET/HTRF, BodiPY ligand, anti 6His-Tb). Particulars: for pIC50: NAMPT IC50 range class, read-out: IC50; for inhibition at 1 µM: compound concentration 1 μM, read-out: Percent Inhibition. In kind it is binding. An outline of the steps: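 TR-FRET binding assay in which His-tagged human NAMPT with anti-6His-Tb is displaced by compound from a BodiPY ligand, incubated 1 h at rt in the dark. Excitation was at 320 nm, with the 520/486 nm emission ratio read. IC50 was fitted from inhibition relative to DMSO controls.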
(Time-resolved FRET reads energy transfer from a long-lived donor to a nearby acceptor.)

The subject of assay [2] is PC3 cells. The experiment in a line: PC3 growth inhibition (Cell-titer glo, 72 hours). Type of assay: cell-based. Particulars: Homo sapiens, PC-3; compound concentration 1.667 μM; PC3 cells, 72 hours, Cell-titer glo; read-out: Percent Inhibition (PC3 growth inhibition). An outline of the steps: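 PC3 cells in RPMI1640 seeded overnight at 37 °C, 5% CO2, then exposed to compound diluted in AIM serum-free medium for 72 h. Viability by CellTiter-Glo luminescence vs DMSO controls; single-concentration % remaining viability (1 μM or 1.667 μM), or GI50/LD50 from curves.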

pIC50: −log10 of the molar value.

Chain of hNAMPT protein (P43490 whole entry): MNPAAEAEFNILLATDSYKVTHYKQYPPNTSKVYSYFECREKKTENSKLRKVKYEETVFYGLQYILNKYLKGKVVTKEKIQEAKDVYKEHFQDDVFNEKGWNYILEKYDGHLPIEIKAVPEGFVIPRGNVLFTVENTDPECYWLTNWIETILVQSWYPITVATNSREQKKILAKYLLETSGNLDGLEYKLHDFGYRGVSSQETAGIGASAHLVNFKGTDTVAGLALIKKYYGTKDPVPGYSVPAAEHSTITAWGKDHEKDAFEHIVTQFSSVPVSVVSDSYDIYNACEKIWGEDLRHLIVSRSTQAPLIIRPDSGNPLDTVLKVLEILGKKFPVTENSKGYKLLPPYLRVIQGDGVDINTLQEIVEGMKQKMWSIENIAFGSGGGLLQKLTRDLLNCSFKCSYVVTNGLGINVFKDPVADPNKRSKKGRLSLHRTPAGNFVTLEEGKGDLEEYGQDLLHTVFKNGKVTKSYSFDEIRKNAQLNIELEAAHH

As usually defined, the pIC50 is the IC50 on a negative log10 scale, so that one unit is a factor of ten. For orientation: inhibition means the drop in the measured response relative to a control, in per cent. `O=C(NCCCc1ncc[nH]1)c1ccc2nc(OCc3ccoc3)c(-c3ccc(F)cc3)nc2c1` [Compound I-351, 3-(4-fluorophenyl)-2-(3-furylmethoxy)-N-[3-(1H-imidazol-2-yl)propyl]quinoxaline-6-carboxamide]: in assay [1], the pIC50 is over 7.00 and the inhibition at 1 µM turned out to be 96%. Also, the inhibition at 1.667 µM in assay [2] was 3%.

Consider `O=C(NCCCc1ncc[nH]1)c1ccc2nc(O[C@@H]3CCOC3)c(-c3ccc(Cl)cc3)nc2c1` [Compound I-352, 3-(4-chlorophenyl)-N-[3-(1H-imidazol-2-yl)propyl]-2-[(3R)-tetrahydrofuran-3-yloxy]quinoxaline-6-carboxamide], for which, in assay [1], the pIC50 was over 7.00 and the inhibition at 1 µM stood at 99%. For the same compound, the inhibition at 1.667 µM in assay [2] stood at 2%.

As for `O=C(NCCCc1ncc[nH]1)c1ccc2nc(-c3ccc(F)cc3)c(-c3cc(Cl)ccc3Cl)nc2c1` [Compound I-353, 3-(2,5-dichlorophenyl)-2-(4-fluorophenyl)-N-[3-(1H-imidazol-2-yl)propyl]quinoxaline-6-carboxamide], in assay [1], the pIC50 was over 7.00 and the inhibition at 1 µM turned out to be 97%. For the same compound, the inhibition at 1.667 µM in assay [2] came to 2%.

With `COc1ccc(Cl)c(-c2nc3cc(C(=O)NCCCc4ncc[nH]4)ccc3nc2-c2ccc(F)cc2)c1` [Compound I-354, 3-(2-chloro-5-methoxyphenyl)-2-(4-fluorophenyl)-N-[3-(1H-imidazol-2-yl)propyl]quinoxaline-6-carboxamide], in assay [1], the pIC50 is over 7.00 and the inhibition at 1 µM was 97%. Besides, the inhibition at 1.667 µM in assay [2] was found to be 2%.

Turning to `CCOc1cc(-c2nc3cc(C(=O)NCCCc4ncc[nH]4)ccc3nc2-c2ccc(F)cc2)ccc1F` [Compound I-355, 3-(3-ethoxy-4-fluorophenyl)-2-(4-fluorophenyl)-N-[3-(1H-imidazol-2-yl)propyl]quinoxaline-6-carboxamide], in assay [1], the pIC50 was over 7.00 and the inhibition at 1 µM was over 99%. Besides, in assay [2], the inhibition at 1.667 µM turned out to be 2%.

Turning to `O=C(NCCCc1ncc[nH]1)c1ccc2nc(OCc3c[nH]cn3)c(-c3ccc(F)cc3)nc2c1` [Compound I-356, 3-(4-fluorophenyl)-2-(1H-imidazol-4-ylmethoxy)-N-[3-(1H-imidazol-2-yl)propyl]quinoxaline-6-carboxamide], in assay [1], the pIC50 is 6.00 to 6.30 and the inhibition at 1 µM came out at 63%. For the same compound, the inhibition at 1.667 µM in assay [2] came to 4%.

Turning to `O=C(NCCCc1ncc[nH]1)c1ccc2nc(C3CC3)c(-c3ccc(F)cc3)nc2c1` [Compound I-357, 2-cyclopropyl-3-(4-fluorophenyl)-N-[3-(1H-imidazol-2-yl)propyl]quinoxaline-6-carboxamide], in assay [1], the pIC50 was 6.30 to 7.00 and the inhibition at 1 µM is 83%. Besides, in assay [2], the inhibition at 1.667 µM worked out at 1%.

In the case of `CCCOc1nc2ccc(C(=O)NCCCc3nnc[nH]3)cc2nc1-c1ccc(F)cc1` [Compound I-358, 3-(4-fluorophenyl)-2-propoxy-N-[3-(4H-1,2,4-triazol-3-yl)propyl]quinoxaline-6-carboxamide], in assay [1], the pIC50 is 6.30 to 7.00 and the inhibition at 1 µM stood at 78%. Also, the inhibition at 1.667 µM in assay [2] came to 3%.

For `CC(C)Oc1nc2ccc(C(=O)NCCCc3ccc(N)nc3)cc2nc1-c1ccc(F)cc1` [Compound I-359, N-[3-(6-aminopyridin-3-yl)propyl]-3-(4-fluorophenyl)-2-isopropoxyquinoxaline-6-carboxamide], in assay [1], the pIC50 is 6.00 to 6.30 and the inhibition at 1 µM came out at 46%. In addition, the inhibition at 1.667 µM in assay [2] was found to be 3%.

Consider `O=C(NCCCc1ncc[nH]1)c1ccc2nc(O[C@H]3CCOC3)c(-c3ccc(Cl)cc3)nc2c1` [Compound I-360, 3-(4-chlorophenyl)-N-[3-(1H-imidazol-2-yl)propyl]-2-[(3S)-tetrahydrofuran-3-yloxy]quinoxaline-6-carboxamide], for which, in assay [1], the pIC50 is over 7.00 and the inhibition at 1 µM was over 99%. The inhibition at 1.667 µM in assay [2] came out at 2%.

In the case of `O=C(NCCCc1ncc[nH]1)c1ccc2nc(-c3ccc(F)cc3)c(-c3ccc(Cl)cc3)nc2c1` [Compound I-361, 3-(4-chlorophenyl)-2-(4-fluorophenyl)-N-[3-(1H-imidazol-2-yl)propyl]quinoxaline-6-carboxamide], in assay [1], the pIC50 is over 7.00 and the inhibition at 1 µM came out at 98%. Further, the inhibition at 1.667 µM in assay [2] worked out at 1%.

With `Nc1ccc(CCCNC(=O)c2ccc3nc(N4CCOCC4)c(-c4ccc(F)cc4)nc3c2)cn1` [Compound I-362, N-[3-(6-aminopyridin-3-yl)propyl]-3-(4-fluorophenyl)-2-(morpholin-4-yl)quinoxaline-6-carboxamide], in assay [1], the pIC50 was 6.30 to 7.00 and the inhibition at 1 µM worked out at 74%. Moreover, in assay [2], the inhibition at 1.667 µM worked out at 2%.

In the case of `N#Cc1ccc(-c2nc3cc(C(=O)NCCCc4ncc[nH]4)ccc3nc2-c2ccc(F)cc2)s1` [Compound I-363, 3-(5-cyano-2-thienyl)-2-(4-fluorophenyl)-N-[3-(1H-imidazol-2-yl)propyl]quinoxaline-6-carboxamide], in assay [1], the pIC50 is 6.30 to 7.00 and the inhibition at 1 µM was 78%. The inhibition at 1.667 µM in assay [2] came to 3%.

For `O=C(NCCCc1ncc[nH]1)c1ccc2nc(OCc3ccc(Cl)cc3)c(-c3ccc(F)cc3)nc2c1` [Compound I-364, 2-[(4-chlorobenzyl)oxy]-3-(4-fluorophenyl)-N-[3-(1H-imidazol-2-yl)propyl]quinoxaline-6-carboxamide], in assay [1], the pIC50 was 6.30 to 7.00 and the inhibition at 1 µM was 73%. Also, the inhibition at 1.667 µM in assay [2] is 4%.

Turning to `Cc1ccc(Cl)c(-c2nc3cc(C(=O)NCCCc4ncc[nH]4)ccc3nc2-c2ccc(F)cc2)c1` [Compound I-365, 3-(2-chloro-5-methylphenyl)-2-(4-fluorophenyl)-N-[3-(1H-imidazol-2-yl)propyl]quinoxaline-6-carboxamide], in assay [1], the pIC50 is over 7.00 and the inhibition at 1 µM worked out at 97%. Moreover, in assay [2], the inhibition at 1.667 µM is 1%.

`O=C(NCCCc1ncc[nH]1)c1ccc2nc(C3CCOCC3)c(-c3ccc(F)cc3)nc2c1` [Compound I-366, 3-(4-fluorophenyl)-N-[3-(1H-imidazol-2-yl)propyl]-2-(tetrahydro-2H-pyran-4-yl)quinoxaline-6-carboxamide]: in assay [1], the pIC50 is 6.00 to 6.30 and the inhibition at 1 µM came out at 53%. Besides, the inhibition at 1.667 µM in assay [2] is 1%.

For the compound `CC(C)Oc1nc2ccc(C(=O)NCc3ccc4nccn4c3)cc2nc1-c1ccc(F)c(F)c1` [Compound I-367, 3-(3,4-Difluorophenyl)-N-(imidazo[1,2-a]pyridin-6-ylmethyl)-2-isopropoxyquinoxaline-6-carboxamide], in assay [1], the pIC50 is 6.00 to 6.30 and the inhibition at 1 µM came out at 50%. Besides, the inhibition at 1.667 µM in assay [2] amounted to 0%.

For the compound `O=C(NCCCc1ncc[nH]1)c1ccc2nc(-c3ccc(F)cc3)c(-c3ccc(F)s3)nc2c1` [Compound I-368, 2-(4-fluorophenyl)-3-(5-fluoro-2-thienyl)-N-[3-(1H-imidazol-2-yl)propyl]quinoxaline-6-carboxamide], in assay [1], the pIC50 was over 7.00 and the inhibition at 1 µM was over 99%. Further, in assay [2], the inhibition at 1.667 µM worked out at 1%.

With `O=C(NCCCc1ncc[nH]1)c1ccc2nc(-c3ccc(F)cc3)c(-c3ccc(Cl)c(C(F)(F)F)c3)nc2c1` [Compound I-369, 3-[4-chloro-3-(trifluoromethyl)phenyl]-2-(4-fluorophenyl)-N-[3-(1H-imidazol-2-yl)propyl]quinoxaline-6-carboxamide], in assay [1], the pIC50 was over 7.00 and the inhibition at 1 µM is 93%. Further, the inhibition at 1.667 µM in assay [2] amounted to 2%.

For the compound `CC(=O)c1ccc(-c2nc3cc(C(=O)NCCCc4ncc[nH]4)ccc3nc2-c2ccc(F)cc2)s1` [Compound I-370, 3-(5-acetyl-2-thienyl)-2-(4-fluorophenyl)-N-[3-(1H-imidazol-2-yl)propyl]quinoxaline-6-carboxamide], in assay [1], the pIC50 was 6.00 to 6.30 and the inhibition at 1 µM is 64%. Further, the inhibition at 1.667 µM in assay [2] was found to be 3%.

`CCCOc1nc2ccc(C(=O)NCCCc3ncc[nH]3)cc2nc1-c1ccc(F)cc1` [Compound I-371, 3-(4-fluorophenyl)-N-[3-(1H-imidazol-2-yl)propyl]-2-propoxyquinoxaline-6-carboxamide]: in assay [1], the pIC50 is over 7.00 and the inhibition at 1 µM was found to be 97%. Further, the inhibition at 1.667 µM in assay [2] is 3%.

As for `O=C(NCCCc1ncc[nH]1)c1ccc2nc(O[C@@H]3CCOC3)c(-c3ccc(F)cc3)nc2c1` [Compound I-372, 3-(4-fluorophenyl)-N-[3-(1H-imidazol-2-yl)propyl]-2-[(3R)-tetrahydrofuran-3-yloxy]quinoxaline-6-carboxamide], in assay [1], the negative-log IC50 (pIC50) was over 7.00 and the inhibition at 1 µM was over 99%. Moreover, the inhibition at 1.667 µM in assay [2] was 2%.

As for `O=C(NCCCc1ncc[nH]1)c1ccc2nc(-c3ccc(F)cc3)c(-c3ccc(F)cc3F)nc2c1` [Compound I-373, 3-(2,4-difluorophenyl)-2-(4-fluorophenyl)-N-[3-(1H-imidazol-2-yl)propyl]quinoxaline-6-carboxamide], in assay [1], the pIC50 was 6.30 to 7.00 and the inhibition at 1 µM is 84%. Besides, the inhibition at 1.667 µM in assay [2] worked out at 2%.

`O=C(NCCCc1ncc[nH]1)c1ccc2nc(-n3ccnn3)c(-c3ccc(F)cc3)nc2c1` [Compound I-374, 3-(4-fluorophenyl)-N-[3-(1H-imidazol-2-yl)propyl]-2-(1H-1,2,3-triazol-1-yl)quinoxaline-6-carboxamide]: in assay [1], the negative-log IC50 (pIC50) was 6.30 to 7.00 and the inhibition at 1 µM amounted to 75%. For the same compound, in assay [2], the inhibition at 1.667 µM was determined as 3%.

(Values after patent US10144742B2 (Millennium Pharmaceuticals, Inc., priority 2014, dated 2018).)
